Consider three compounds from US9708316B2 (BRISTOL-MYERS SQUIBB COMPANY, priority 2014, dated 2017).

One experiment addresses T1, HIS-TGFβR1 T204D (Homo sapiens, UniProt P36897, T204D).
T1 sequence (P36897 34-503 T204D): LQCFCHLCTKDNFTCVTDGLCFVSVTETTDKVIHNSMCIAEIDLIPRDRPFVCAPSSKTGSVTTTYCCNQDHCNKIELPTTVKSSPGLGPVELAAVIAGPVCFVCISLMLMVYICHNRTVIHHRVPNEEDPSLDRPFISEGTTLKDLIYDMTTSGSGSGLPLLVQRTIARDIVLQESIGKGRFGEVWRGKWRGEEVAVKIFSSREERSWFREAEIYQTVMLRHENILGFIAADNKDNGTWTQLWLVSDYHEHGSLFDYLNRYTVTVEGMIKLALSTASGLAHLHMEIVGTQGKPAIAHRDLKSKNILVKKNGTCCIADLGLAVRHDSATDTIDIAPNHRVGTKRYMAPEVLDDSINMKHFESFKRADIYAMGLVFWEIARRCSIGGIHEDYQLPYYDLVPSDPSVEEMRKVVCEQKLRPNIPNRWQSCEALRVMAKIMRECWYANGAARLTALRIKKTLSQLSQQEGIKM
Briefly: HTRF probe-displacement assay, HIS-TGFβR1 T204D. It is filed as binding. The note with it: read-out: TGFβR1 (μM) IC50. On the technique in general: TR-FRET usually uses a lanthanide donor and a delayed reading to cut background.

In the next experiment the target is HIS-TGFβR2 WT (Homo sapiens, UniProt P37173). Briefly: HTRF probe-displacement assay, HIS-TGFβR2 WT. The experiment is classed as binding.
Sequence of HIS-TGFβR2 WT (P37173 23-567): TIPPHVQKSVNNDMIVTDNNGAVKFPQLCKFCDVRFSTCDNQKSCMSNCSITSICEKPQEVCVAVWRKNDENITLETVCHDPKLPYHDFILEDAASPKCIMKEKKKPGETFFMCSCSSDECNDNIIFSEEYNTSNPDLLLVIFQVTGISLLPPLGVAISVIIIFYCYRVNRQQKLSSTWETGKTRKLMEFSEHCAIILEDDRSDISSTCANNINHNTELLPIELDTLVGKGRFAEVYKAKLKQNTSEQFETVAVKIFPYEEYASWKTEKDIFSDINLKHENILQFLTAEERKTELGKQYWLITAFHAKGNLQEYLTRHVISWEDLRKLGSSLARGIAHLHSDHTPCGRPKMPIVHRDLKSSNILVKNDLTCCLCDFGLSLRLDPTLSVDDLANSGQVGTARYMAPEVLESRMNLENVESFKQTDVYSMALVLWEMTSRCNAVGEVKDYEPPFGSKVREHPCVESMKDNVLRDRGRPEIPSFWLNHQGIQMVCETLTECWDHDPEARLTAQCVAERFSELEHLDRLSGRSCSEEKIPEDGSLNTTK

On to `COc1ccc(-c2c(-c3ccnc(NC(C)=O)c3)[nH]c3c(C(O)C(C)C)ccnc23)cn1` (stereo not drawn) [Example 300, N-(4-(7-(1-Hydroxy-2-methylpropyl)-3-(6-methoxypyridin-3-yl)-1H-pyrrolo[3,2-b]pyridin-2-yl)pyridin-2-yl)acetamide], for which the IC50 (in general, the concentration that gives 50% inhibition) on HIS-TGFβR1 T204D was determined as 0.003 µM; on HIS-TGFβR2 WT, 0.017 µM.

`CCC(O)c1ccnc2c(-c3ccc(OC)nc3)c(-c3ccnc(NC(C)=O)c3)[nH]c12` (stereo not drawn) [Example 301, N-(4-(7-(1-Hydroxypropyl)-3-(6-methoxypyridin-3-yl)-1H-pyrrolo[3,2-b]pyridin-2-yl)pyridin-2-yl)acetamide]: the IC50 on HIS-TGFβR1 T204D came to 0.001 µM; at HIS-TGFβR2 WT, 0.031 µM.

In the case of `CCC(OC(N)=O)c1ccnc2c(-c3ccc(OC)nc3)c(-c3ccnc(NC(C)=O)c3)[nH]c12` (stereo not drawn) [Example 302, 1-(2-(2-Acetamidopyridin-4-yl)-3-(6-methoxypyridin-3-yl)-1H-pyrrolo[3,2-b]pyridin-7-yl)propyl carbamate], the values for the IC50 at HIS-TGFβR1 T204D and at HIS-TGFβR2 WT were 0.001 µM and 0.723 µM, respectively.
